Holding throughout (assay type): functional, cell-based
What all share (conditions): monkey, cos-7, 72 µM

The target of data set [1] is T1, Hepatic sodium/bile acid cotransporter (Mus musculus, UniProt O08705).
T1 sequence (O08705 whole entry): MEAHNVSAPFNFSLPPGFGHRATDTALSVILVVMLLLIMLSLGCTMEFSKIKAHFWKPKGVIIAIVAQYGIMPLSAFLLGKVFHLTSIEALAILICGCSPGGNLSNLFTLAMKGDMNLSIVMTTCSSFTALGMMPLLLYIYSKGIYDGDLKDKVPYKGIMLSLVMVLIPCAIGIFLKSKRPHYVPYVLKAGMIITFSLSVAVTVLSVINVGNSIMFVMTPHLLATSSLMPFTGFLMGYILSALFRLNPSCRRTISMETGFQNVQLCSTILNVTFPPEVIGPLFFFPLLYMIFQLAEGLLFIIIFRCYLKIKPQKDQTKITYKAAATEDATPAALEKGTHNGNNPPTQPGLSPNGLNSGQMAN
Put plainly: TP_TRANSPORTER: inhibition of Taurocholate uptake (Taurocholate: 0.72 uM, Lithocholate: 72 uM) in Ntcp-expressing COS-7 cells.

The target of data set [2] is T1, Hepatic sodium/bile acid cotransporter. Description: TP_TRANSPORTER: inhibition of Taurocholate uptake (Taurocholate: 0.72 uM, CDCA: 72 uM) in Ntcp-expressing COS-7 cells.
Data set [3] has the same target. Description: TP_TRANSPORTER: inhibition of Taurocholate uptake (Taurocholate: 0.72 uM, GC: 72 uM) in Ntcp-expressing COS-7 cells.
Data set [4] has the same target. Put plainly: TP_TRANSPORTER: inhibition of Taurocholate uptake (Taurocholate: 0.72 uM, Deoxycholate: 72 uM) in Ntcp-expressing COS-7 cells.

In the case of `C[C@H](CCC(=O)O)[C@H]1CC[C@H]2[C@@H]3CC[C@@H]4C[C@H](O)CC[C@]4(C)[C@H]3CC[C@]12C` [LITHOCHOLIC ACID], the Activity entry in data set [1] is “inhibitor [(at a rough estimate) 5 % of control]”.

Regarding `C[C@H](CCC(=O)O)[C@H]1CC[C@H]2[C@@H]3[C@H](O)C[C@@H]4C[C@H](O)CC[C@]4(C)[C@H]3CC[C@]12C` [CHENODIOL], the Activity result in data set [2] is “inhibitor [(at a rough estimate) 20 % of control]”.

On to `C[C@H](CCC(=O)NCC(=O)O)[C@H]1CC[C@H]2[C@@H]3[C@H](O)C[C@@H]4C[C@H](O)CC[C@]4(C)[C@H]3C[C@H](O)[C@]12C` [GLYCOCHOLIC ACID], for which the Activity result in data set [3] was “inhibitor [(at a rough estimate) 40 % of control]”.

Turning to `C[C@H](CCC(=O)O)[C@H]1CC[C@H]2[C@@H]3CC[C@@H]4C[C@H](O)CC[C@]4(C)[C@H]3C[C@H](O)[C@]12C` [DEOXYCHOLIC ACID], the Activity entry in data set [4] was “inhibitor [(at a rough estimate) 20 % of control]”.

The values above are taken from ChEMBL document CHEMBL2074034, “Characterization of cloned mouse Na+/taurocholate cotransporting polypeptide by transient expression in COS-7 cells” (Biosci Biotechnol Biochem, 2002).
